Measured values as given in publication PMC3876047, “Self/Co-Assembling Peptide, EAR8-II, as a Potential Carrier for a Hydrophobic Anticancer Drug Pirarubicin (THP)—Characterization and in-Vitro Delivery” (International Journal of Molecular Sciences, 2013).

How the values were obtained:
[1] = Tapping mode atomic force microscopy of nanostructure; type: physicochemical; conditions: tapping mode AFM, EAR8-II 0.5 mg/mL
Procedure: Figure 2. Nanostructure of (A) EAR8-II and (C) EAR8-II-THP complex by tapping mode atomic force microscopy; Intensity-based particle size distribution of (B) EAR8-II and (D) EAR8-II-THP complex in aqueous solution by dynamic light scattering. EAR8-II concentration is 0.5 mg/mL, and THP concentration is 0.1 mg/mL.

[2] = Steady-state THP fluorescence, encapsulation of THP by EAR8-II; type: physicochemical; conditions: [THP] = 0.1 mg/mL, fluorescence excitation 480 nm / emission 590 nm, plateau of intensity
Procedure: The amount of protonated THP in EAR8-II is also determined by measuring the fluorescence intensity of the excitation and emission by THP at different EAR8-II concentrations. Protonated THP absorbs light at 480 nm, and emits light at 590–600 nm. Fluorescence intensity for both the excitation and emission spectra is proportional to the concentration of protonated THP stabilized in the peptide solution. Although the initial concentration of THP was constant in each complex, the amount of protonated THP varied due to the dependency of the THP encapsulation efficiency on peptide concentration.
The THP fluorescence emission spectra were acquired on a photon technology international spectrafluorometer (Type QM4-SE, London, ON, Canada) with a continuous xenon lamp as the light source. The emission spectra were collected in the wavelength range of 500–800 nm, while samples were excited at 480 nm. The maximum emission peak of THP is at a wavelength of 590–600 nm. […] The fluorescence intensity at 590 and 480 nm for emission and excitation were obtained by taking the average of twenty points of fluorescence intensity, respectively. Each fluorescence spectrum was divided by lamp intensity to account for eventual lamp fluctuations. The normalized fluorescence intensity for both emission and excitation spectra at 590 and 480 nm was plotted for various peptide-to-drug ratios.

[3] = Dynamic light scattering, particle size of peptide and peptide-drug complexes; type: physicochemical; conditions: DLS, intensity-based, aqueous solution, EAR8-II 0.5 mg/mL, 25 °C, no drug
Procedure: EAR8-II peptide solutions in the concentration range of 0.05–2 mg/mL (0.0547–2.188 mM) were prepared by dissolving peptide lyophilized powder in Milli-Q (18.2 MΩ) water (EMD Millipore, Billerica, MA, USA) followed by bath sonicating for 10 min. Freshly prepared peptide solutions were added to THP to reach fixed [THP] concentrations at 0.1 mg/mL (0.159 mM), followed by mechanical stirring at 900 rpm for 24 h.
The particle size distribution and zeta potential of peptide-drug complexes at different peptide-to-drug ratios were measured by a Zetasizer Nano ZS (Malvern Instruments, Worcestershire, UK). Appropriate settings, viscosity, refractive index, and dispersant solvent were set for each measurement at 25 °C. A small 50 μL volume of the sample was transferred from the vial to a disposable solvent resistant micro cuvette (ZEN0040, Malvern, Worcestershire, UK). The scattered light intensities of the samples were collected at an angle of 173°. This was known as backscatter detection, i.e., the relationship between the size of a particle and its scattered light intensity obtained with the multimodal Contin algorithm, which was provided in the Dispersion Technology Software 5.1 package (Malvern Instruments, Worcestershire, UK).

[4] = Solubilisation of THP in water and EAR8-II solution (appearance); type: physicochemical; conditions: visual appearance
Procedure: To determine a suitable concentration of required EAR8-II for THP encapsulation, different concentrations of EAR8-II, in a range of 0.05–1.0 mg/mL, were prepared and combined with THP at 0.1 mg/mL concentration in aqueous solution. Solubility of THP in water is very low, whereas it can be dissolved and stabilized in an EAR8-II solution at a minimum concentration of 0.2 mg/mL. […] However, at higher EAR8-II concentrations (0.2–0.6 mg/mL), THP molecules were fully dissolved, and consequently, a clear-transparent solution of the peptide-drug complexes formed. At much higher peptide concentrations (above 0.6 mg/mL), THP molecules were still fully soluble, but the excess amount of EAR8-II produced a cloudier solution, with clearly a higher particle size distribution. Note that amphiphilic features of EAR8-II, including the ionic and hydrophobic residues, stimulated binding with hydrophobic molecules of THP through protonation of NH2 to NH3^+ in THP molecules and hydrophobic interactions between alanine residues and aromatic rings in the THP structure. […] Both ionic and hydrophobic interactions are the possible main interactions of EAR8-II and THP, i.e., the protonation of THP in an acidic EAR8-II solution and hydrophobic interaction between THP and hydrophobic side chains of EAR8-II are the dominant forces in complexation of EAR8-II-THP. […]

HeLa cells = assay: Cellular toxicity, CCK-8 assay, HeLa; type: cell-based, Human; conditions: 24 h
Procedure: (§1) All cell lines, purchased from Cedarlane (Burlington, ON, Canada), were used in the current study and cultured in their respective culture medium as follows: Human Cervical Adenocarcinoma: HeLa (CCL-2) in Eagle's Minimum Essential Medium (EMEM) (ATCC30-2003), Human lung cancer: A549 (CCL-185) in F-12 medium (ATCC30-2004). All medium solutions were prepared with 10% fetal bovine serum (FBS-[…]). Two human cancer cell lines, with 10^4 cells per well concentrations, were seeded in 96-well plates, followed by treatment with different peptide-drug complex ratios for 24 h. Cellular-toxicity experiments were performed with sensitive colorimetric assay called Cell counting kit-8 (CCK-8) (Dojindo Molecular Technologies, Inc. Burlington, ON, Canada). CCK-8 contains highly water-soluble tetrazolium salt (WST-8), which is reduced by dehydrogenase activities in cells to give the yellow color of the formazan dye, which is soluble in culture media. The amount of formazan dye is measured by absorption (O.D.) at 450 nm, which is directly proportional to the number of living cells.

A549 cells = assay: Cellular toxicity, CCK-8 assay, A549; type: cell-based, Human; conditions: 24 h
Procedure: as §1

Row | average height of self-assembled fibres [1] [nm] | average width of self-assembled fibres [1] [nm] | minimum concentration of peptide required to fully encapsulate THP [2] | hydrodynamic diameter of aggregates [3] | minimum EAR8-II concentration at which THP is dissolved and stabilized ([4]; aqueous solution, [THP] = 0.1 mg/mL, stirring at 900 rpm 24 h) [mg/mL] | Compound | solubility of THP in water ([4]; water, no peptide, THP 0.1 mg/mL, stirring 24 h) | cellular viability (HeLa cells; THP at 38 μM in water, no peptide) [%] | cellular toxicity in absence of peptide (HeLa cells; THP control without peptide) | cellular viability (A549 cells; A549, THP at 38 μM in water, no peptide) [%] | cellular toxicity in absence of peptide (A549 cells; A549, THP control without peptide)
1 | 15 | 10 | ~ 0.5 mg/mL | ~ 500 nm | 0.2 | Ac-AEAEARAR-NH2 [EAR8-II, Ac-AEAEARAR-NH2] |  |  |  |  | 
2 |  |  |  |  |  | COc1cccc2c1C(=O)c1c(O)c3c(c(O)c1C2=O)C[C@@](O)(C(=O)CO)C[C@@H]3O[C@H]1C[C@H](N)[C@H](O[C@@H]2CCCCO2)[C@H](C)O1 [THP, 4-O-tetrahydropyranyladriamycin] | very low | 29.58 ± 3.69 | non-significant cellular toxicity | 64.9 ± 6.4 | non-significant cellular toxicity
